# Source: US20020035061A1, “COMPOSITIONS AND METHODS FOR TREATING INFECTIONS USING CATIONIC PEPTIDES ALONE OR IN COMBINATION WITH ANTIBIOTICS” (priority 1996, published 2002)
# Several values for one entry are separate records, joined by “and”; a condition that tells them apart may be missing. Identical values can stand only once. Like-named read-outs stand apart in the source and are kept apart here.
# What was measured:
# A. calcoaceticus = type: cell-based
# E. cloacae = type: cell-based
# E. faecalis = type: cell-based; settings: for MIC, Peptide: unmodified parent peptide
# K. pneumoniae = type: cell-based
# S. epidermidis = type: cell-based
# S. maltophilia = type: cell-based
# S. pneumoniae = experiment: Agarose dilution assay (MIC); type: cell-based; settings: for Peptide MIC values: agarose dilution
# [1] = tested on: inherently resistant microorganisms; experiment: microbe, parasite or virus in culture; type: cell-based
# [2] = tested on: MSSA (Smith, ATCC # 19640); experiment: In vivo efficacy, MSSA infection; set-up: species or system S. aureus; settings: formulation D; for % Survival: 60 min post-infection, end of eight day observation
# [3] = P. aeruginosa, Ceftriaxone section
# [4] = S. aureus MRSA, Piperacillin section
# [5] = S. maltophilia, Ceftriaxone section
# [6] = peptide + Piperacillin, S. aureus MRSA
sequence,measurement,setting,value
ILKKFPFFPFRRK [MBI 11A1CN],MIC,A. calcoaceticus; A. calcoaceticus AC002,16 µg/mL
same,MIC,E. cloacae; E. cloacae ECL007,>128 µg/mL
same,MIC,E. faecalis; E. faecalis EFS002,32 µg/mL
same,MIC,K. pneumoniae; K. pneumoniae KP002,>128 µg/mL
same,MIC,S. epidermidis; S. epidermidis SE002,16 µg/mL
same,MIC,S. maltophilia; S. maltophilia SMA002,>128 µg/mL
same,MIC,S. pneumoniae; S. pneumoniae SBSPN2,>128 µg/mL
same,Peptide MIC values,S. pneumoniae; S. pneumoniae 406LE8,>128 µg/mL
same,Peptide MIC values,S. pneumoniae; S. pneumoniae 60120,>128 µg/mL
same,Peptide MIC values,S. pneumoniae; S. pneumoniae ATCC 49619,>128 µg/mL
same,Peptide MIC + Tobramycin,[1]; S. haemolyticus,0.125 µg/mL
same,Peptide MIC Alone,"[1]; S. haemolyticus, Tobramycin section",16 µg/mL
same,FIC,"[1]; peptide + Tobramycin, S. aureus",0.50
same,FIC,"[1]; peptide + Tobramycin, S. haemolyticus",0.51
same,% Survival,[2]; 12 mg/kg ip,0%
same,% Survival,[2]; 18 mg/kg ip,0%
same,% Survival,[2]; 24 mg/kg ip,0%
ILKKWPWWPWRRK [MBI 11CN],MIC,A. calcoaceticus; A. calcoaceticus AC001,128 µg/mL
same,MIC,E. cloacae; E. cloacae ECL007,>64 µg/mL
same,MIC,E. faecalis; E. faecalis EFS001,32 µg/mL
same,MIC,K. pneumoniae; K. pneumoniae KP002,128 µg/mL
same,MIC,S. epidermidis; S. epidermidis SE001,2 µg/mL
same,MIC,S. maltophilia; S. maltophilia SMA001,64 µg/mL
same,MIC,S. pneumoniae; S. pneumoniae SBSPN2,>128 µg/mL
same,Peptide MIC values,S. pneumoniae; S. pneumoniae 406LE8,>128 µg/mL
same,Peptide MIC values,S. pneumoniae; S. pneumoniae 60120,>128 µg/mL
same,Peptide MIC values,S. pneumoniae; S. pneumoniae ATCC 49619,64 µg/mL
same,% Survival,[2]; 12 mg/kg ip,0%
same,% Survival,[2]; 24 mg/kg ip,50%
same,mice rescued from MSSA infection,"[2]; mice, ip 60 min post-infection, 35.7 mg/kg",100%
same,activity,"[2]; mice, ip, dose levels lower than 35.7 mg/kg",little or no activity
ILRWPWWPWRRK [MBI 11B7CN],"MIC, Peptide","A. calcoaceticus; A. calcoaceticus AC002, unmodified parent peptide",2 µg/mL
same,MIC,A. calcoaceticus; A. calcoaceticus strain AC003,32 µg/mL
same,"MIC, Peptide","E. cloacae; E. cloacae ECL007, unmodified parent peptide",128 µg/mL
same,MIC,E. cloacae; E. cloacae strain ECL0009,32 µg/mL
same,"MIC, Peptide",E. faecalis; E. faecalis EFS004,8 µg/mL
same,"MIC, Peptide",E. faecalis; E. faecalis EFS008,2 µg/mL and 4 µg/mL
same,MIC,E. faecalis; E. faecalis strain EFS004,4 µg/mL
same,"MIC, Peptide","K. pneumoniae; K. pneumoniae KP001, unmodified parent peptide",4 µg/mL and 8 µg/mL
same,MIC,K. pneumoniae; K. pneumoniae strain KP0011,32 µg/mL
same,"MIC, Peptide","S. epidermidis; S. epidermidis SE010, unmodified parent peptide",2 µg/mL
same,MIC,S. epidermidis; S. epidermidis strain SE003,2 µg/mL
same,"MIC, Peptide","S. maltophilia; S. maltophilia SMA002, unmodified parent peptide",16 µg/mL
same,MIC,S. maltophilia; S. maltophilia strain SMA004,128 µg/mL
same,MIC,S. pneumoniae; S. pneumoniae strain SBSPN3,>128 µg/mL
same,Peptide MIC + Ceftriaxone,[1]; P. aeruginosa,64 µg/mL
same,Peptide MIC Alone,[1]; [3],128 µg/mL
same,Peptide MIC + Piperacillin,[1]; S. aureus MRSA,2 µg/mL
same,Peptide MIC Alone,[1]; [4],4 µg/mL
same,Peptide MIC Alone,[1]; [5],32 µg/mL
same,FIC,"[1]; peptide + Ceftriaxone, P. aeruginosa",0.50
same,FIC,[1]; [6],0.50
same,% Survival,[2]; 12 mg/kg ip,0%
same,% Survival,[2]; 18 mg/kg ip,10%
same,% Survival,[2]; 24 mg/kg ip,60%
KKWWRRALQGLKTAGPAIQSVLNK [MBI 21A2],Peptide MIC + Amikacin,[1]; S. aureus MRSA,1 µg/mL
same,Peptide MIC + Piperacillin,[1]; S. aureus MRSA,64 µg/mL
same,Peptide MIC Alone,"[1]; S. aureus MRSA, Amikacin section",2 µg/mL
same,Peptide MIC Alone,[1]; [4],>128 µg/mL
same,FIC,"[1]; peptide + Amikacin, S. aureus MRSA",0.56
same,FIC,[1]; [6],0.25
KWKSFIKKLTSAAKKVVTTAKPLISS [MBI 26],MBI 26 MIC + Erythro.,[1]; A. calcoaceticus AC001,8 µg/mL
same,MBI 26 MIC Alone,[1]; A. calcoaceticus AC001,16 µg/mL
same,MBI 26 MIC + Vancomycin,[1]; E. casseliflavus 97056 VanC,1 µg/mL
same,MBI 26 MIC Alone,[1]; E. casseliflavus 97056 VanC,8 µg/mL
same,MBI 26 MIC + Vancomycin,[1]; E. casseliflavus 97057 VanC,0.5 µg/mL
same,MBI 26 MIC Alone,[1]; E. casseliflavus 97057 VanC,2 µg/mL
same,MBI 26 MIC + Vancomycin,[1]; E. casseliflavus 97058 VanC,0.25 µg/mL
same,MBI 26 MIC Alone,[1]; E. casseliflavus 97058 VanC,4 µg/mL
same,MBI 26 MIC + Vancomycin,[1]; E. casseliflavus 97059 VanC,0.5 µg/mL
same,MBI 26 MIC Alone,[1]; E. casseliflavus 97059 VanC,32 µg/mL
same,MBI 26 MIC + Vancomycin,[1]; E. casseliflavus 97060 VanC,0.25 µg/mL
same,MBI 26 MIC Alone,[1]; E. casseliflavus 97060 VanC,0.5 µg/mL
same,Peptide MIC + Mupirocin,[1]; E. coli,1 µg/mL
same,Peptide MIC Alone,"[1]; E. coli, Mupirocin section",2 µg/mL
same,MBI 26 MIC + Vancomycin,[1]; E. gallinarum 97044 VanC,0.5 µg/mL
same,MBI 26 MIC Alone,[1]; E. gallinarum 97044 VanC,8 µg/mL
same,MBI 26 MIC + Vancomycin,[1]; E. gallinarum 97046 VanC,4 µg/mL
same,MBI 26 MIC Alone,[1]; E. gallinarum 97046 VanC,2 µg/mL
same,MBI 26 MIC + Vancomycin,[1]; E. gallinarum 97047 VanC,8 µg/mL
same,MBI 26 MIC Alone,[1]; E. gallinarum 97047 VanC,64 µg/mL
same,MBI 26 MIC + Vancomycin,[1]; E. gallinarum 97048 VanC,2 µg/mL
same,MBI 26 MIC Alone,[1]; E. gallinarum 97048 VanC,2 µg/mL
same,MBI 26 MIC + Vancomycin,[1]; E. gallinarum 97049 VanC,16 µg/mL
same,MBI 26 MIC Alone,[1]; E. gallinarum 97049 VanC,64 µg/mL
same,MBI 26 MIC + Erythro.,[1]; K. pneumoniae KP001,8 µg/mL
same,MBI 26 MIC Alone,[1]; K. pneumoniae KP001,16 µg/mL
same,MBI 26 MIC + Erythro.,[1]; K. pneumoniae KP002,32 µg/mL
same,MBI 26 MIC Alone,[1]; K. pneumoniae KP002,64 µg/mL
same,MBI 26 MIC + Erythro.,[1]; P. aeruginosa PA041,32 µg/mL
same,MBI 26 MIC Alone,[1]; P. aeruginosa PA041,64 µg/mL
same,Peptide MIC Alone,[1]; [3],128 µg/mL
same,Peptide MIC + Piperacillin,[1]; S. aureus MRSA,4 µg/mL
same,Peptide MIC Alone,[1]; [4],32 µg/mL
same,Peptide MIC + Ceftriaxone,[1]; S. maltophilia,2 µg/mL
same,Peptide MIC Alone,[1]; [5],8 µg/mL
same,FIC,"[1]; peptide + Amikacin, S. maltophilia",0.19
same,FIC,"[1]; peptide + Ceftriaxone, S. maltophilia",0.25
same,FIC,"[1]; peptide + Mupirocin, E. coli",0.50
same,FIC,[1]; [6],0.13
